Test results reported in paper PMC3916416, “Recombinant Human Parathyroid Hormone Related Protein 1-34 and 1-84 and Their Roles in Osteoporosis Treatment” (PLoS ONE, 2014).

Key:
[1] = system: primary bone marrow cells (BMC); assay: Primary bone marrow cell culture, cytochemical colony (CFU-f) staining; type: cell-based, rat; conditions: 10^-7 M on day 0, 18-day primary BMC cultures, compared with control cultures; triplicate determinations, three experiments
Protocol: Tibiae and femurs of 200-g male Wistar rats were removed under aseptic conditions, and bone marrow cells (BMC) were flushed out with Dulbecco's modified Eagle's minimal essential medium containing 10% fetal calf serum, 50 µg/ml ascorbic acid, 10 mM β-glycerophosphate, and 10^−8 M dexamethasone. Cells were dispersed by repeated pipetting, and a single-cell suspension was achieved by forcefully expelling the cells through a 22-gauge syringe needle. 10^6 total bone marrow cells were cultured in 36-cm^2 Petri dishes in 5 ml of the above-mentioned medium. All the dishes were assigned to three different groups. Each of the group treated with vehicle (Control), 10^−7 M hPTHrP1-34 or 10^−7 M hPTHrP1-84. The medium was changed every 4 days. The non-adherent cells containing hematopoietic elements were removed by pipetting gently when the medium was changed for the first time. Only monocytic cells remained. Cultures were maintained for 12–18 days. At the end of the culture period cells were stained cytochemically or RNA was extracted from these cells for RT-PCR as described below. The cells from 18-day primary BMC cultures were washed with PBS and fixed by the addition of cold ethanol. […] The numbers of colonies were counted macroscopically by hand. […]

[2] = system: Cbfa-1, ALP, Col I, OCN mRNA in primary BMC; assay: Real-time RT-PCR of osteogenic genes in 14-day primary BMC cultures; type: cell-based, rat; conditions: 10^-7 M, ratio to GAPDH, compared with control cultures, three trials
Protocol: Tibiae and femurs of 200-g male Wistar rats were removed under aseptic conditions, and bone marrow cells (BMC) were flushed out with Dulbecco's modified Eagle's minimal essential medium containing 10% fetal calf serum, 50 µg/ml ascorbic acid, 10 mM β-glycerophosphate, and 10^−8 M dexamethasone. Cells were dispersed by repeated pipetting, and a single-cell suspension was achieved by forcefully expelling the cells through a 22-gauge syringe needle. 10^6 total bone marrow cells were cultured in 36-cm^2 Petri dishes in 5 ml of the above-mentioned medium. All the dishes were assigned to three different groups. Each of the group treated with vehicle (Control), 10^−7 M hPTHrP1-34 or 10^−7 M hPTHrP1-84. The medium was changed every 4 days. The non-adherent cells containing hematopoietic elements were removed by pipetting gently when the medium was changed for the first time. Only monocytic cells remained. Cultures were maintained for 12–18 days. At the end of the culture period cells were stained cytochemically or RNA was extracted from these cells for RT-PCR as described below.
RNA was isolated from 14-day cultured cells using Trizol reagent (Invitrogen) according to the manufacturer's protocol. Femurs were isolated and weighted. Homogenize tissue samples in 1 ml of TRIzol reagent per 50–100 mg of tissue using mortar and pestle with liquid nitrogen. […]

[3] = Serum calcium, phosphorus and ALP in OVX mice; type: in vivo, mouse; conditions: 10 nmol/kg s.c. daily for 4 weeks, versus vehicle-treated OVX mice, n = 6
Protocol: (§1) Twenty four female C57BL/6J mice, 8 weeks age, were assigned to four different groups, with six mice per group. All mice were anesthetized with chloral hydrate (0.4 ml/100 g body weight) and subjected to surgery on day 0. Sham surgery was performed on the Sham group (Sham) by identifying the bilateral ovaries and ovariectomy (OVX) was performed on the other groups by removing the bilateral ovaries. After surgery, all mice were maintained in a virus- and parasite-free barrier facility and exposed to a 12-h/12-h light/dark cycle under standard conditions in the Medical Experimental Animal Center of Nanjing Medical University for 9 weeks. HPTHrP1–34 was subcutaneously administered at a dose of 10 nmol/kg (40 µg/kg) body weight everyday for the last 4 weeks. HPTHrP1–84 was subcutaneously administered at a dose of 10 nmol/kg (100 µg/kg) body weight everyday for the last 4 weeks. Each of the mice received vehicle (vehicle-treated sham-operated mice and vehicle-treated OVX mice), hPTHrP1-34 (hPTHrP1-34-treated OVX mice) or hPTHrP1-84 (hPTHrP1-84-treated OVX mice). […]
Serum calcium, phosphorus and ALP were determined at 4 weeks after the administration of drugs by autoanalyzer (Beckman Synchron 67; Beckman Instruments).

[4] = system: renal calcium transporters (calbindin-D28K, calbindin-D9K, NCX1, TRPV5); assay: Western blot of renal calcium transporters in OVX mice; type: in vivo, mouse; conditions: 10 nmol/kg s.c. daily for 4 weeks, relative to vehicle-treated sham-operated mice, n = 6
Protocol: as §1
Purified hPTHrP1-34 and 1-84 and proteins extracted from kidney were quantitated by a kit (Bio-Rad, Mississauga, Ontario, Canada). […] Bands were visualized using ECL chemiluminescence (Amersham) and quantitated by Scion Image Beta 4.02 (Scion Corporation, NIH).

[5] = system: OVX mice (osteoporosis model); assay: Bone volume of vertebrae in OVX mice (radiography, micro-CT, histology); type: in vivo, mouse; conditions: 10 nmol/kg s.c. daily for 4 weeks
Protocol: (§2) Twenty four female C57BL/6J mice, 8 weeks age, were assigned to four different groups, with six mice per group. All mice were anesthetized with chloral hydrate (0.4 ml/100 g body weight) and subjected to surgery on day 0. Sham surgery was performed on the Sham group (Sham) by identifying the bilateral ovaries and ovariectomy (OVX) was performed on the other groups by removing the bilateral ovaries. After surgery, all mice were maintained in a virus- and parasite-free barrier facility and exposed to a 12-h/12-h light/dark cycle under standard conditions in the Medical Experimental Animal Center of Nanjing Medical University for 9 weeks. HPTHrP1–34 was subcutaneously administered at a dose of 10 nmol/kg (40 µg/kg) body weight everyday for the last 4 weeks. HPTHrP1–84 was subcutaneously administered at a dose of 10 nmol/kg (100 µg/kg) body weight everyday for the last 4 weeks. Each of the mice received vehicle (vehicle-treated sham-operated mice and vehicle-treated OVX mice), hPTHrP1-34 (hPTHrP1-34-treated OVX mice) or hPTHrP1-84 (hPTHrP1-84-treated OVX mice). At the end of experiments, all mice were sacrificed by exsanguination under chloral hydrate anesthesia and blood were collected for serum calcium, phosphorus and ALP analyses, bones and kidneys were then removed for the analyses described below.
Thoracic vertebrae were removed and dissected free of soft tissue. […]
Thoracic vertebrae were fixed overnight in 70% ethanol and analyzed by micro-CT with a SkyScan 1072 scanner and associated analysis software (SkyScan, Antwerp, Belgium) as described. […]
Total collagen was detected in paraffin sections using a modified method of Lopez-De Leon and Rojkind. […]
(§3) After HE staining or histochemical staining of sections from six mice of each genotype, images of fields were photographed with a Sony digital camera. All images were digitally recorded using a rectangular template, and recordings were processed and analyzed using Northern Eclipse image analysis software as described, [26], [28].

[6] = system: OVX mice (osteoporosis model); assay: Osteoblastic bone formation parameters of vertebrae in OVX mice; type: in vivo, mouse; conditions: 10 nmol/kg s.c. daily for 4 weeks, compared to vehicle-treated sham-operated mice, n = 6
Protocol: as §2
Lumbar vertebrae or tibiae were removed and fixed in PLP fixative (2% paraformaldehyde containing 0.075 M lysine and 0.01 M sodium periodate solution) overnight at 4°C and processed histologically as described. Lumbar vertebrae were decalcified in ethylene-diamine tetraacetic acid (EDTA) glycerol solution for 5–7 days at 4°C. Decalcified samples were dehydrated and embedded in paraffin after which 5 µm sections were cut on a rotary microtome. […]
Double calcein labeling was performed by intraperitoneal injection of mice with 10 µg calcein/g body weight (C-0875, Sigma-Aldrich Corp., St. Louis, MO) at 10 and 3 day before death. […] Serial sections were cut, and the freshly cut surface of each section was viewed and imaged using fluorescence microscopy. The double calcein-labeled width of bone was measured using Northern Eclipse image analysis software version 6.0 (Empix Imaging, Inc., Mississauga, Canada), and the mineral apposition rate (MAR) was calculated as the interlabel width/labeling period.
as §3

[7] = system: Cbfa1, ALP, Col I, OCN, RANKL, OPG mRNA in long bone; assay: Real-time RT-PCR of long bone extracts of OVX mice; type: in vivo, mouse; conditions: 10 nmol/kg s.c. daily for 4 weeks, n = 6
Protocol: as §2
RNA was isolated from 14-day cultured cells using Trizol reagent (Invitrogen) according to the manufacturer's protocol. Femurs were isolated and weighted. Homogenize tissue samples in 1 ml of TRIzol reagent per 50–100 mg of tissue using mortar and pestle with liquid nitrogen. After homogenization, remove insoluble material from the homogenate by centrifuging at 12,000 RPM for 10 min at 4°C. Transfer the top layer solution into a new tube. RNA of this solution was precipitated with isopropanol, washed with 75% ethanol and dissolved with DEPC water. Reverse transcription reactions were performed using the SuperScript First-Strand Synthesis System (Invitrogen) as previously described. […]

[8] = system: OVX mice (osteoporosis model); assay: Osteoclastic bone resorption (TRAP staining) in OVX mice; type: in vivo, mouse; conditions: 10 nmol/kg s.c. daily for 4 weeks, vertebrae, compared with vehicle-treated OVX mice, n = 6
Protocol: as §1, §3

[9] = Serum PTHrP analyses (ELISA) after subcutaneous injection; type: in vivo, mouse; conditions: OVX mice, 10 nmol/kg s.c.
Protocol: The OVX mice were injected with vehicle or 10 nmol/kg hPTHrP1-34 or 10 nmol/kg hPTHrP1-84 subcutaneously. Subsequently, blood samples were drawn at 15 and 30 minutes, 1, 2, 4 and 6 hours after the injections. Serum concentrations of hPTHrP1-34 or hPTHrP1-84 were measured by enzyme linked immunosorbent assay (ELISA) that used Phoenix Pharmaceuticals PTHrP(1-34)- EIA Kit (Phoenix Pharmaceuticals, USA). Procedures were performed according to the instructions of the kit.

[10] = system: placental calcium transport; conditions: cited from earlier work
Excerpt: It supports the concept that the mid-molecule region of PTHrP is functionally important in placental calcium transport. […] However, it is unclear whether there are some differences between PTHrP1-34 and 1-84 on renal calcium reabsorption and on bone formation. To answer this que ...

[11] = vertebrae, micro-CT and histology, compared to vehicle-treated OVX mice (hPTHrP1-84 also to hPTHrP1-34-treated), n = 6
[12] = compared to vehicle-treated sham-operated mice

Substance	colony formation and osteogenic cell differentiation and mineralization [1]	gene expression levels of Cbfa-1, ALP, type I collagen (Col I) and osteocalcin (OCN) [2]	Serum mineral ion and ALP levels [3]	protein levels of calbindin-D28K, calbindin-D9K, NCX1 and TRPV5 in the kidney [4]	radiolucency in vertebrae ([5]; radiography, compared to vehicle-treated sham-operated mice)	cortical thickness [5, 11]	trabecular bone volume [5, 11]	ALP positive area [6]	MAR (mineral apposition rate) [6]	osteoblast number [6]	osteoid volume [6]	ratios of RANKL/OPG mRNA levels ([7]; among vehicle-treated, hPTHrP1-34-treated and hPTHrP 1-84-treated OVX mice)	osteoblastic gene expression levels of Cbfa1, ALP [7, 12]	ratios of RANKL/OPG mRNA levels [7, 12]	TRAP positive osteoclast number [8]	TRAP positive osteoclast surface [8]	circulating t1/2 ([9]; ELISA, read from the figure (Fig. 6e), approximate)	time at which plasma PTHrP levels declined to baseline levels ([9]; ELISA, sampling 15 and 30 min, 1, 2, 4, 6 h, n = 6) [h]	plasma PTHrP levels at 15 min after the administration ([9]; single injection, PTHrP(1-34) EIA kit (ELISA), mean ± SEM, n = 6) [pM]	placental calcium transfer [10]
hPTHrP1-34: recombinant human parathyroid hormone related protein 1-34, expressed as GST fusion in E. coli BL21 and cleaved by thrombin	significant increase	upregulated significantly	no significant differences	down-regulated	increased	not altered significantly	not altered significantly	increased	decreased	increased	not altered significantly	no significant differences	slightly up-regulated	increased significantly	did not further increase	did not further increase	approximately 45 mins	2	9 ± 0.7	–
synthetic PTHrP1-34: synthetic PTHrP1-34 of the literature study on placental calcium transfer (ref 18)	–	–	–	–	–	–	–	–	–	–	–	–	–	–	–	–	–	–	–	no such effect
